Drawing on ChEMBL document CHEMBL1146714, “Peptidyl hydroxamic acids as methionine aminopeptidase inhibitors” (Bioorg Med Chem Lett, 2004), this text covers Ki for five compounds.

Each structure is given as a SMILES string.

Test [1] in a line: Inhibitory activity against methionine Escherichia coli aminopeptidase (MetAP).
In test [2] the target is Methionine aminopeptidase 2 (Homo sapiens, UniProt P50579). Put plainly: Inhibitory activity against Methionine aminopeptidase 2.
Methionine aminopeptidase 2, sequence (P50579 whole entry): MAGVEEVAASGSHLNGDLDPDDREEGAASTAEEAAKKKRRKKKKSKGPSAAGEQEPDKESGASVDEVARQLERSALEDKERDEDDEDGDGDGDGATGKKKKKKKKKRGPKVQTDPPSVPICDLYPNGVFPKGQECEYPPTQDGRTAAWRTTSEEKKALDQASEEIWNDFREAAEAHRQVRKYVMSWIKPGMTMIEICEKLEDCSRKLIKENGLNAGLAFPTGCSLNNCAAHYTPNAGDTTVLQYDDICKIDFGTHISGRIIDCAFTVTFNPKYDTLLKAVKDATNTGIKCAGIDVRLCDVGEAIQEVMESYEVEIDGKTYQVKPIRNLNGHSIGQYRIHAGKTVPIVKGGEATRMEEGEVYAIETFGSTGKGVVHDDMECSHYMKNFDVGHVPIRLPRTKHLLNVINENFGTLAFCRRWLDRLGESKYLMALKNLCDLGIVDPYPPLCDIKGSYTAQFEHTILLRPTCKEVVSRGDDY

As to `CCCC[C@H](N)C(=O)N(O)CCC(=O)NCCc1ccccn1`, in test [1], the affinity, expressed as Ki, was 48 µM.
As for `C[C@@H](N)C(=O)N(O)CC(=O)O`, the inhibitory constant (Ki) in test [1] amounted to 8.8 µM; in test [2], 600 µM.
Take `CSCC[C@H](N)C(=O)N(O)CC(=O)NCCc1ccccn1`: the Ki in test [1] is 2.5 µM.
Consider `CCCC[C@H](N)C(=O)N(O)CC(=O)NCCc1ccccn1`, for which the Ki came to 59 µM in test [1] and 164 µM in test [2].
The like results for `CSCC[C@H](N)C(=O)N(O)CC(=O)O` were, in that order, 170 µM and 1300 µM.

Usually Ki stands for the dissociation constant of the complex between target and ligand, obtained from inhibition or displacement. The low end stands for a stronger hold on the target, the high end for a looser hold on the target.
